Results taken from ChEMBL document CHEMBL1201862, “PubChem BioAssay data set” (2004).
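Test compounds were applied to cells in 96-well plates for 48 hours at 5 doses. Abbreviation: GI50, concentration required for 50% inhibition of growth.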 Activity calls are given as the source filed them. Cut-off read from the data, not from the text of the source: active = GI50 up to about 1.1 µM and inactive = higher.

Legend:
Test in all cases: inhibition of tumour cell growth, NCI panel, 48 h
HOP-62 = test system: HOP-62
MCF7 = test system: MCF7
M14 = test system: M14
HCT-15 = test system: HCT-15
MDA-N = test system: MDA-N
PC-3 = test system: PC-3
SR = test system: SR
TK-10 = test system: TK-10
NCI/ADR-RES = test system: NCI/ADR-RES
Hs-578T = test system: Hs-578T
CAKI-1 = test system: CAKI-1
ACHN = test system: ACHN
NCI-H522 = test system: NCI-H522
DMS-273 = test system: DMS-273
DLD-1 = test system: DLD-1
M19-MEL = test system: M19-MEL
SNB-78 = test system: SNB-78
DMS-114 = test system: DMS-114
HOP-18 = test system: HOP-18
KM-20L2 = test system: KM-20L2

Measured: GI50

N#Cc1c(NC(=S)NC(=O)c2ccccc2)nc2c(c1-c1ccccc1)CCCC2
inactive: HOP-62 45.3 µM | MCF7 58.9 µM | M14 > 100 µM | MDA-N > 100 µM | PC-3 > 100 µM | SR > 100 µM | TK-10 > 100 µM | NCI/ADR-RES 51.6 µM | Hs-578T 17 µM | CAKI-1 > 100 µM
> 100 µM: HCT-15

O=C1C=C(Sc2ccccc2)c2nccc3c2c1nc1ccccc13
12.2 µM: HCT-15
inactive: ACHN 19.3 µM | HOP-62 14 µM | MCF7 14.9 µM | M14 13.3 µM | MDA-N 16.9 µM | PC-3 13.3 µM | SR 5.92 µM | TK-10 31.1 µM | NCI-H522 2.33 µM | NCI/ADR-RES 21.8 µM | Hs-578T 15.8 µM | CAKI-1 44.2 µM

c1ccc2c(c1)NCc1cc3ccccc3nc1O2
inactive: DMS-273 > 100 µM | DLD-1 > 100 µM | HOP-62 > 100 µM | MCF7 16 µM | NCI-H522 > 100 µM | NCI/ADR-RES > 77.8 µM | M19-MEL > 100 µM | SNB-78 > 100 µM | DMS-114 99.5 µM | HOP-18 > 100 µM | CAKI-1 > 100 µM
> 100 µM: HCT-15

COc1ccc2[nH]c3c(C)c4ccncc4c(C)c3c2c1
inactive: SNB-78 2.69 µM | HOP-18 1.29 µM
0.22 µM: HCT-15
active: DMS-273 0.218 µM | DLD-1 0.123 µM | HOP-62 0.946 µM | MCF7 0.359 µM | KM-20L2 0.169 µM | NCI-H522 0.681 µM | NCI/ADR-RES 0.139 µM | DMS-114 0.446 µM | CAKI-1 0.601 µM

COc1ccc(C2c3cc4c(cc3OC(NCCO)C2C)OCO4)cc1 (configuration not stated)
inactive: ACHN 29.6 µM | HOP-62 29.8 µM | MCF7 27.3 µM | M14 26.4 µM | MDA-N 18.2 µM | PC-3 23.4 µM | SR 19 µM | TK-10 23.8 µM | NCI-H522 16.6 µM | Hs-578T 19.3 µM | CAKI-1 23.5 µM
17.7 µM: HCT-15

O=C1CCCCC2N(C(c3ccccc3)c3ccccc3)CC[C@@]12c1ccccc1.O=C1CCCC[C@H]2N(C(c3ccccc3)c3ccccc3)CC[C@@]12c1ccccc1 (some centres not stated)
7.93 µM: HCT-15
inactive: DMS-273 > 10 µM | ACHN 8.87 µM | M14 > 10 µM | KM-20L2 > 10 µM | TK-10 > 10 µM | NCI-H522 3.68 µM | M19-MEL > 10 µM | SNB-78 > 10 µM | DMS-114 5.19 µM | CAKI-1 4.83 µM

CC(C(=O)NCCNC(=O)CCCC(=O)N(C)O)C(=O)NCCNC(=O)CCCC(=O)N(C)O
> 100 µM: HCT-15
inactive: ACHN > 100 µM | HOP-62 > 100 µM | MCF7 > 100 µM | M14 > 100 µM | MDA-N > 100 µM | PC-3 > 100 µM | SR > 100 µM | TK-10 > 100 µM | NCI-H522 > 100 µM | NCI/ADR-RES > 100 µM | Hs-578T > 100 µM | CAKI-1 > 100 µM

O=C/C(=C1/C=Cc2cc([N+](=O)[O-])ccc2S1)c1ccccc1
inactive: ACHN > 100 µM | HOP-62 > 100 µM | MCF7 > 100 µM | M14 > 100 µM | MDA-N > 100 µM | PC-3 > 100 µM | SR > 100 µM | TK-10 > 100 µM | NCI-H522 > 100 µM | NCI/ADR-RES > 100 µM | Hs-578T > 100 µM | CAKI-1 > 100 µM
> 100 µM: HCT-15

Nc1ccccc1Sc1ccc(Cl)cc1
28.1 µM: HCT-15
inactive: DMS-273 26.1 µM | ACHN 27 µM | DLD-1 34.6 µM | HOP-62 31.4 µM | M14 31.8 µM | SR 21.2 µM | KM-20L2 20.9 µM | TK-10 35.6 µM | M19-MEL 23 µM | SNB-78 17 µM | DMS-114 21.2 µM | HOP-18 43.2 µM

CN(C)c1ccc(C2CC(=O)CC(c3ccc(N(C)C)cc3)C23C(=O)NC(=O)NC3=O)cc1 (configuration not stated)
> 25 µM: HCT-15
inactive: ACHN > 25 µM | HOP-62 18.2 µM | MCF7 > 25 µM | M14 > 25 µM | MDA-N > 25 µM | PC-3 > 25 µM | SR > 25 µM | TK-10 > 25 µM | NCI-H522 17.6 µM | NCI/ADR-RES > 25 µM | CAKI-1 > 25 µM

COC1C(O)C(n2ncc3c(SC)nc(SC)nc32)OC1C(O)CO (configuration not stated)
inactive: DMS-273 > 100 µM | DLD-1 > 100 µM | HOP-62 > 100 µM | MCF7 > 100 µM | KM-20L2 > 100 µM | NCI-H522 > 100 µM | NCI/ADR-RES > 100 µM | M19-MEL > 100 µM | SNB-78 > 100 µM | DMS-114 > 100 µM | HOP-18 > 100 µM
> 100 µM: HCT-15

Cc1nn(C)c2c1C(=O)N(C)CC(=O)N2C
69.7 µM: HCT-15
inactive: ACHN > 100 µM | HOP-62 > 100 µM | MCF7 > 100 µM | M14 > 100 µM | MDA-N > 100 µM | PC-3 > 100 µM | SR > 100 µM | TK-10 > 100 µM | NCI-H522 > 100 µM | Hs-578T > 100 µM | CAKI-1 > 100 µM

Nc1ccccc1S(=O)(=O)c1ccccc1
inactive: DMS-273 > 100 µM | ACHN > 100 µM | DLD-1 > 100 µM | HOP-62 > 100 µM | M14 > 100 µM | SR > 100 µM | KM-20L2 > 100 µM | TK-10 > 100 µM | M19-MEL > 100 µM | DMS-114 > 100 µM | HOP-18 > 100 µM
> 100 µM: HCT-15

CC(C)(C)/N=c1/n(C(C)(C)C)oc(=O)n1C(C)(C)C
> 100 µM: HCT-15
inactive: ACHN > 100 µM | HOP-62 > 100 µM | MCF7 > 100 µM | M14 > 100 µM | MDA-N > 100 µM | PC-3 > 100 µM | SR > 100 µM | TK-10 > 100 µM | NCI/ADR-RES > 100 µM | Hs-578T > 100 µM | CAKI-1 > 100 µM

Nc1ccc(N(S(=O)(=O)c2ccccc2)S(=O)(=O)c2ccccc2)c(Cl)c1
inactive: ACHN 66.5 µM | HOP-62 63.8 µM | MCF7 39.3 µM | M14 77.6 µM | MDA-N 28.9 µM | PC-3 35.6 µM | SR 57.3 µM | TK-10 55.1 µM | NCI-H522 33.9 µM | NCI/ADR-RES 40.2 µM | Hs-578T 64 µM | CAKI-1 47.3 µM
55.7 µM: HCT-15

O=C(O)c1ccc(Nc2c3ccccc3nc3ccccc23)cc1
inactive: DMS-273 38.9 µM | HOP-62 > 67.3 µM | MCF7 71.1 µM | KM-20L2 > 100 µM | NCI-H522 > 75.7 µM | NCI/ADR-RES > 76 µM | M19-MEL 66.7 µM | SNB-78 30.8 µM | DMS-114 > 100 µM | HOP-18 > 100 µM | CAKI-1 49.9 µM
64.4 µM: HCT-15

Cc1c(Cl)c(=O)oc2cc(OCC(=O)c3ccccc3)ccc12
inactive: ACHN > 100 µM | HOP-62 31.3 µM | MCF7 > 100 µM | M14 > 100 µM | MDA-N > 100 µM | PC-3 > 100 µM | SR 2.7 µM | TK-10 92 µM | NCI-H522 > 100 µM | NCI/ADR-RES > 100 µM | Hs-578T > 100 µM | CAKI-1 > 100 µM
> 100 µM: HCT-15

Oc1c(Br)ccc2cccnc12
active: MCF7 0.443 µM | SR 0.944 µM | NCI-H522 0.959 µM | NCI/ADR-RES 1 µM
inactive: ACHN 3.13 µM | HOP-62 12.4 µM | MDA-N > 19.8 µM | PC-3 3.33 µM | TK-10 5.04 µM | Hs-578T 3.21 µM | CAKI-1 5.94 µM
0.948 µM: HCT-15

N#CC1=C(O)NC(O)=C(C#N)C1c1c(Cl)cccc1Cl
20.4 µM: HCT-15
inactive: DMS-273 26.2 µM | ACHN 33.3 µM | DLD-1 16.7 µM | HOP-62 27.7 µM | M14 26.9 µM | SR > 100 µM | KM-20L2 34.8 µM | TK-10 40.4 µM | NCI-H522 35.2 µM | M19-MEL 21.4 µM | SNB-78 26.2 µM | DMS-114 18.8 µM | HOP-18 > 100 µM | CAKI-1 30.1 µM

C=CCOCCC(CC=C)C(=O)CC(=O)OC (configuration not stated)
> 100 µM: HCT-15
inactive: DMS-273 45.3 µM | ACHN > 100 µM | DLD-1 > 100 µM | HOP-62 > 100 µM | M14 > 100 µM | SR 3.56 µM | KM-20L2 > 100 µM | TK-10 > 100 µM | NCI-H522 > 100 µM | HOP-18 > 100 µM

C=CCC12CC(=O)C=C1CCC1(C2)OCCO1 (configuration not stated)
inactive: DMS-273 > 100 µM | ACHN > 100 µM | DLD-1 > 100 µM | HOP-62 > 100 µM | M14 > 100 µM | SR > 100 µM | KM-20L2 > 100 µM | TK-10 > 100 µM | NCI-H522 > 100 µM | M19-MEL > 100 µM | SNB-78 > 100 µM | HOP-18 > 100 µM | CAKI-1 > 100 µM
> 100 µM: HCT-15

CN(C)CCCNC(=O)N/N=C/c1ccccc1
> 100 µM: HCT-15
inactive: DMS-273 > 100 µM | ACHN > 100 µM | DLD-1 > 100 µM | TK-10 > 100 µM | NCI-H522 > 100 µM | M19-MEL > 100 µM | SNB-78 > 100 µM | DMS-114 > 100 µM | HOP-18 > 100 µM

CC(C)CC(N)C(=O)NC(CNC(CCC(N)=O)C(=O)NC(CC(C)C)C(=O)NC(CC(C)C)C(=O)O)Cc1ccc2ccccc2c1 (configuration not stated)
inactive: ACHN > 10 µM | HOP-62 > 10 µM | MCF7 > 10 µM | M14 > 10 µM | MDA-N > 10 µM | PC-3 > 10 µM | SR > 10 µM | TK-10 > 10 µM | NCI/ADR-RES > 10 µM | Hs-578T > 10 µM | CAKI-1 9.31 µM
> 10 µM: HCT-15
